Measurements from US20260217708A1, “FUSED BENZAZEPINE DERIVATIVES FOR USE IN THE TREATMENT OF CANCER AND EPILEPSY” (UCB BIOPHARMA SRL, priority 2023, published 2026).

How the values were obtained:
system Xc^− [1] = biological target: T1, system Xc^− (Homo sapiens, UniProt Q9UPY5); assay: Cystine-induced glutamate release assay; assay type: cell-based; set-up: endogenous in cells; host or cells: H4 cells; conditions: H4 cells, sodium-free HEPES buffer, 50 μM L-Cystine, 2 hours, Amplex Red glutamate readout; read-out: pIC50 Cystine-induced glutamate release assay (converted)
T1 sequence (Q9UPY5 1-501): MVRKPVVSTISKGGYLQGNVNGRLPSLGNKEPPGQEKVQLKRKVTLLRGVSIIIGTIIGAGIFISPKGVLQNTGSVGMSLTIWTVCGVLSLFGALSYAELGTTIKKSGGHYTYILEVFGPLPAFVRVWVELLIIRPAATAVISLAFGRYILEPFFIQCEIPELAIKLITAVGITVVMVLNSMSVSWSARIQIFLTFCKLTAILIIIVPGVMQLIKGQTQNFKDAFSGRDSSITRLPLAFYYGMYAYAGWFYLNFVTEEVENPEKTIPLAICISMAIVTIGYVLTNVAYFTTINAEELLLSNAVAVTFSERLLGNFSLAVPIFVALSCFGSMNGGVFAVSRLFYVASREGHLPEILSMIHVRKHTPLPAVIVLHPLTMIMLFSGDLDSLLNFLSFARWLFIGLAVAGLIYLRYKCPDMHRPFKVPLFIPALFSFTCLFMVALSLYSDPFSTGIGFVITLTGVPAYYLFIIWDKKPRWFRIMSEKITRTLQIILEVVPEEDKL
T1 sequence (P08195 1-529 partner): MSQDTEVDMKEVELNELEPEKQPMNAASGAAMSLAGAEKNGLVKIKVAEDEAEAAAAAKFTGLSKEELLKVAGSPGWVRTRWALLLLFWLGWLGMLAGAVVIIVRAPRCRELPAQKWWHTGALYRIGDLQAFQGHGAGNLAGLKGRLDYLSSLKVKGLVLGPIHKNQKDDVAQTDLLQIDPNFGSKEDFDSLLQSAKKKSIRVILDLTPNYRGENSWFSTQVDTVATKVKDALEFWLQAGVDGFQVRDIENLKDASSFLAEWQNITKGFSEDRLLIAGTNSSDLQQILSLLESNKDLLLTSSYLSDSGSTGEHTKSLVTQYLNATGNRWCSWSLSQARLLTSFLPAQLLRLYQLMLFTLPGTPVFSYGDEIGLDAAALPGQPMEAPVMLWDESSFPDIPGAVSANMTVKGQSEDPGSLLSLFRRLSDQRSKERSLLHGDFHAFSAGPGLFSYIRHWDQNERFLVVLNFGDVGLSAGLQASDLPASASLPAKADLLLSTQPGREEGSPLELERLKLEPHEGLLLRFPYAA
Procedure, shortened: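 IC50 (reported as pIC50) normalized to DMSO 1% and Erastin 50 μM controls, from Amplex Red fluorescence of glutamate exported into supernatant. H4 cells were washed into sodium-free buffer to exclude EAAT transport, then given compound with 50 μM L-cystine for 2 h in the incubator.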

system Xc^− [2] = biological target: T1, system Xc^−; assay: [^14C]L-Cystine uptake assay; assay type: cell-based; set-up: endogenous in cells; host or cells: H4 cells; conditions: H4 cells, sodium-free HEPES buffer, 0.5 μM L-[14C]Cystine and 4.5 μM L-Cystine, 1 hour at 37° C.; read-out: pIC50 [^14C] L-Cystine uptake assay (converted)
Procedure, shortened: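 Compound effect is given as pIC50, taken between controls of 1% DMSO and 50 μM Erastin. Human H4 cells were pretreated 15 min with compound in sodium-free buffer, then took up 0.5 μM [14C]cystine with 4.5 μM cold cystine for 1 hour at 37° C, read by scintillation proximity counting.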

IC50 (system Xc^− [1]) [nM]	IC50 (system Xc^− [2]) [nM]	Structure (SMILES)
< 15.8	< 15.8	Cc1cc2c(c(F)n1)-c1cccnc1[C@@H](C)C(=O)N2CC(=O)Nc1ccc(Br)cc1 [#145, N-(4-bromophenyl)-2-[(10R)-3-fluoro-5,10-dimethyl-9-oxo-4,8,12-triazatricyclo[9.4.0.0^2,7]pentadeca-1(11),2(7),3,5,12,14-hexaen-8-yl]acetamide]
39.8 to 100	100 to 501	Cc1cc2c(c(F)n1)-c1cccnc1[C@@H](C)C(=O)N2CC(=O)Nc1ccc2c(c1)nnn2C [#147, 2-[(10R)-3-fluoro-5,10-dimethyl-9-oxo-4,8,12-triazatricyclo[9.4.0.0^2,7]pentadeca-1(11),2(7),3,5,12,14-hexaen-8-yl]-N-(1-methylbenzotriazol-5-yl)acetamide]
39.8 to 100	15.8 to 39.8	Cc1cc2c(c(F)n1)-c1cccnc1[C@@H](C)C(=O)N2CC(=O)Nc1ccc2c(cnn2C(F)F)c1 [#148, N-[1-(difluoromethyl)indazol-5-yl]-2-[(10R)-3-fluoro-5,10-dimethyl-9-oxo-4,8,12-triazatricyclo[9.4.0.0^2,7]pentadeca-1(11),2(7),3,5,12,14-hexaen-8-yl]acetamide]
15.8 to 39.8	< 15.8	Cc1cc2c(c(F)n1)-c1cccnc1[C@@H](C)C(=O)N2CC(=O)Nc1ccc(C(C)(F)F)cc1 [#149, N-[4-(1,1-difluoroethyl)phenyl]-2-[(10R)-3-fluoro-5,10-dimethyl-9-oxo-4,8,12-triazatricyclo[9.4.0.0^2,7]pentadeca-1(11),2(7),3,5,12,14-hexaen-8-yl]acetamide]
39.8 to 100	15.8 to 39.8	Cc1cc2c(c(F)n1)-c1cccnc1[C@@H](C)C(=O)N2CC(=O)Nc1ccc(Cl)c(Cl)c1 [#150, N-(3,4-dichlorophenyl)-2-[(10R)-3-fluoro-5,10-dimethyl-9-oxo-4,8,12-triazatricyclo[9.4.0.0^2,7]pentadeca-1(11),2(7),3,5,12,14-hexaen-8-yl]acetamide]
< 15.8	< 15.8	Cc1cc2c(c(F)n1)-c1cccnc1[C@@H](C)C(=O)N2CC(=O)Nc1ccc(C(F)F)cc1 [#151]
15.8 to 39.8	< 15.8	Cc1cc2c(c(C#N)n1)-c1cccnc1C(C)C(=O)N2CC(=O)Nc1ccc(C(F)(F)F)cc1 (stereo not drawn) [#154, 2-(3-cyano-5,10-dimethyl-9-oxo-4,8,12-triazatricyclo[9.4.0.0^2,7]pentadeca-1(11),2(7),3,5,12,14-hexaen-8-yl)-N-[4-(trifluoromethyl)phenyl]acetamide]
15.8 to 39.8	< 15.8	Cc1cc2c(c(F)n1)-c1cccnc1[C@@H](C)C(=O)N2CC(=O)Nc1ccc(Br)c(F)c1 [#158, N-(4-bromo-3-fluoro-phenyl)-2-[(10R)-3-fluoro-5,10-dimethyl-9-oxo-4,8,12-triazatricyclo[9.4.0.0^2,7]pentadeca-1(11),2(7),3,5,12,14-hexaen-8-yl]acetamide]

More lines, now with the values behind:

Structure (SMILES)	IC50 (system Xc^− [1]) [nM]	IC50 (system Xc^− [2]) [nM]
Cc1cc2c(c(F)n1)-c1cccnc1C(CO)C(=O)N2CC(=O)Nc1ccc(C(F)(F)F)cc1 (stereo not drawn) [#152, 2-[3-fluoro-10-(hydroxymethyl)-5-methyl-9-oxo-4,8,12-triazatricyclo[9.4.0.0^2,7]pentadeca-1(11),2(7),3,5,12,14-hexaen-8-yl]-N-[4-(trifluoromethyl)phenyl]acetamide]	39.8 to 100	15.8 to 39.8
Cc1cc2c(c(C#N)n1)-c1cccnc1CC(=O)N2CC(=O)Nc1ccc(C(F)(F)F)cc1 [#153, 2-(3-cyano-5-methyl-9-oxo-4,8,12-triazatricyclo[9.4.0.0^2,7]pentadeca-1(11),2(7),3,5,12,14-hexaen-8-yl)-N-[4-(trifluoromethyl)phenyl]acetamide]	15.8 to 39.8	15.8 to 39.8
Cc1cc2c(c(=O)[nH]1)-c1ccccc1C(C)C(=O)N2CC(=O)Nc1ccc(C(F)(F)F)cc1 (stereo not drawn) [#156, 2-(3,7-dimethyl-1,6-dioxo-2,7-dihydropyrido[4,3-d][3]benzazepin-5-yl)-N-[4-(trifluoromethyl)phenyl]acetamide]	15.8 to 39.8	39.8 to 100
COc1nc(C)cc2c1-c1cncnc1C(C)C(=O)N2CC(=O)Nc1ccc(C(F)(F)F)cc1 (stereo not drawn) [#157, 2-(15-methoxy-8,13-dimethyl-9-oxo-4,6,10,14-tetrazatricyclo[9.4.0.0^2,7]pentadeca-1(11),2(7),3,5,12,14-hexaen-10-yl)-N-[4-(trifluoromethyl)phenyl]acetamide]	15.8 to 39.8	< 15.8
COC1C(=O)N(CC(=O)Nc2ccc(C(F)(F)F)cc2)c2cc(C)nc(Cl)c2-c2cccnc21 (stereo not drawn) [#159, 2-(3-chloro-10-methoxy-5-methyl-9-oxo-4,8,12-triazatricyclo[9.4.0.0^2,7]pentadeca-1(11),2(7),3,5,12,14-hexaen-8-yl)-N-[4-(trifluoromethyl)phenyl]acetamide]	39.8 to 100	15.8 to 39.8
Cc1cc2c(c(Cl)n1)-c1cncc(F)c1CC(=O)N2CC(=O)Nc1ccc(C(F)(F)F)cc1 [#160, 2-(3-chloro-12-fluoro-5-methyl-9-oxo-4,8,14-triazatricyclo[9.4.0.0^2,7]pentadeca-1(11),2(7),3,5,12,14-hexaen-8-yl)-N-[4-(trifluoromethyl)phenyl]acetamide]	100 to 501	15.8 to 39.8
Cc1cc2c(c(Cl)n1)-c1cncnc1C(C)C(=O)N2CC(=O)Nc1ccc(C(F)(F)F)cc1 (stereo not drawn) [#163, 2-(15-chloro-8,13-dimethyl-9-oxo-4,6,10,14-tetrazatricyclo[9.4.0.0^2,7]pentadeca-1(11),2(7),3,5,12,14-hexaen-10-yl)-N-[4-(trifluoromethyl)phenyl]acetamide]	15.8 to 39.8	15.8 to 39.8
COc1ccc2c(c1)-c1c(cc(C)nc1Cl)N(CC(=O)Nc1ccc(C(F)(F)F)cc1)C(=O)C2C (stereo not drawn) [#164, 2-(1-chloro-10-methoxy-3,7-dimethyl-6-oxo-7H-pyrido[4,3-d][3]benzazepin-5-yl)-N-[4-(trifluoromethyl)phenyl]acetamide]	100 to 501	39.8 to 100
Cc1cc2c(c(F)n1)-c1cccc(CO)c1CC(=O)N2CC(=O)Nc1ccc(C(F)(F)F)cc1 [#165, 2-[1-fluoro-8-(hydroxymethyl)-3-methyl-6-oxo-7H-pyrido[4,3-d][3]benzazepin-5-yl]-N-[4-(trifluoromethyl)phenyl]acetamide]	100 to 501	100 to 501
Cc1cc2c(n(C)c1=O)-c1ccccc1N(C)C(=O)N2CC(=O)Nc1ccc(Cl)c(F)c1 [#166, N-(4-chloro-3-fluoro-phenyl)-2-(1,3,7-trimethyl-2,6-dioxo-pyrido[3,2-d][1,3]benzodiazepin-5-yl)acetamide]	15.8 to 39.8	15.8 to 39.8
Cc1nc(C#N)cc2c1-c1cccnc1CC(=O)N2CC(=O)Nc1ccc(C(F)(F)F)cc1 [#167, 2-(5-cyano-3-methyl-9-oxo-4,8,12-triazatricyclo[9.4.0.0^2,7]pentadeca-1(11),2(7),3,5,12,14-hexaen-8-yl)-N-[4-(trifluoromethyl)phenyl]acetamide]	39.8 to 100	15.8 to 39.8
O=C(CN1C(=O)Cc2ncccc2-c2c1cc(Cl)nc2Cl)Nc1ccc(C(F)(F)F)cc1 [#168, 2-(3,5-dichloro-9-oxo-4,8,12-triazatricyclo[9.4.0.0^2,7]pentadeca-1(11),2(7),3,5,12,14-hexaen-8-yl)-N-[4-(trifluoromethyl)phenyl]acetamide]	100 to 501	15.8 to 39.8
CNc1cc2c(c(Cl)n1)-c1cccnc1CC(=O)N2CC(=O)Nc1ccc(C(F)(F)F)cc1 [#169, 2-[3-chloro-5-(methylamino)-9-oxo-4,8,12-triazatricyclo[9.4.0.0^2,7]pentadeca-1(11),2(7),3,5,12,14-hexaen-8-yl]-N-[4-(trifluoromethyl)phenyl]acetamide]	100 to 501	15.8 to 39.8
